The values below come from patent publication US20220304958A1, “SMALL MOLECULE INHIBITORS OF A PROTEIN COMPLEX” (THE REGENTS OF THE UNIVERSITY OF CALIFORNIA, priority 2019, published 2022).

One data set addresses T1, HEG1-KRIT1 interaction (Homo sapiens, UniProt O00522).
T1 construct: His6-EGFP-KRIT1 (WT) FERM domain (417-736) and KRIT1 (L717,721A) mutant were cloned into pETM-11; His6 (N); made in house; host or cells: E. coli BL21 Star (DE3)
Briefly: Flow cytometry assay for the HEG1-KRIT1 FERM domain interaction (competition binding on HEG1 matrix beads). The protocol:
Bead Coupling. SPHERO Neutravidin Polystyrene Particles, […] (Spherotech) were washed twice with wash buffer (20 mM Tris, 150 mM NaCl. pH 7.4 containing 0.01% NP-40, and 1 mM EDTA). Prior to incubation with biotin-tagged HEG 1 cytoplasmic tail protein, an appropriate volume of bead slurry was passivated to inhibit non-specific binding by incubation for 30 minutes at room temperature in reaction buffer containing 0.1% BSA (20 mM Tris, 150 mM NaCl, pH 7.4 0.01% NP-40, 1 mM EDTA, 1 mM DTT, and 0.1% BSA). Passivated beads were collected by centrifugation, resuspended to 3,600 particles/μl in reaction buffer and biotinylated HEG1 tail was added to a final concentration of 150 nM and incubated overnight on a rotator at 4° C. The beads were washed three times by centrifugation with ice-cold reaction buffer to remove unbound HEG1 peptide. Beads were diluted such that a final concentration of 2000 beads/μL were available for addition to assay plates.
Flow cytometry assay. A final volume of 100 μl containing 140 nM EGFP-KRIT1 FERM domain, with 10% DMSO or 10% compounds in DMSO, was incubated for 15 minutes at room temperature on a rotator. 100 μl of beads were added to the mixture for a final volume of 200 μl at 1,000 particles/μl with 70 nM EGFP-KRIT1 and incubated for 15 minutes at room temperature on a rotator. The control beads were: without KRIT1 (minimum signal); with KRIT1 (maximum signal); and with KRIT1 plus 2 μM HEG1 7-mer (positive blocking control). The EGFP fluorescence was measured using a BD Accuri flow cytometer. For screening purposes, the final volume of the reaction was scaled down to 10 μl and samples were processed as previously described (27). For FIGS. 1D-1F, 2B, and 3E, a representative experiment is shown of at the least 3 independent repeats.
Assay plate assembly. Plate assays were performed in 384-well microtiter plates (Greiner Bio-one, #784101). Reaction buffer. HEG1-coupled beads, and EGFP-KRIT-FERM constructs were added using a MultiFlo™ Microplate Dispenser (BioTek Instruments, Inc.). Compounds were added to single-point assay plates pre-loaded with reaction buffer using a Biomek^NX liquid handler (BeckmanCoulter) equipped with a […] pintool (V & P Scientific, Inc.). Compound libraries were dispensed to a final concentration of 10 μM. An equal volume (10 nL) of DMSO was added to the vehicle control wells. Following the addition of library compounds, 5 μL of assay buffer was added and the plates were mixed before addition of 5 μL of the protein-coupled bead mixtures; Plates were protected from light and incubated on a rotator for 15 minutes at room temperature. Binding of EGFP-KRIT to HEG1 coupled beads was evaluated using an Accuri C6 flow cytometer.
Data Acquisition. Assay plates were sampled using the HyperCyt™ high throughput flow cytometry platform (Intellicyt; Albuquerque, N. Mex.). During sampling, the probe moves from well to well and samples 1-2 μL from each well pausing 0.4 sec in the air before sampling the next well. The resulting sample stream consisting of 384 separated samples is delivered to an Accuri C6 flow cytometer (BD Biosciences; San Jose, Calif.). Plate data are acquired as time-resolved files that are parsed by software-based well identification algorithms and merged with compound library files. Plate performance was validated using the Z-prime calculation (28).
Compounds that satisfied hit selection criteria in the primary screen were cherry-picked from compound storage plates and tested to confirm activity and determine potency. Dose response data points were fitted by Prism software (GraphPad Software Inc., San Diego, Calif.) using nonlinear least-squares regression in a sigmoidal dose-response model with variable slope, also known as the 4-parameter logistic equation.

The test system of another data set is PARD3 binding to HEG1. Briefly: PARD3 pulldown assay with HEG1 matrix. Details: species or system human (HUVEC lysates). Conditions: 35 μM compound, HUVEC lysates, HEG1 WT matrix. The protocol:
PARD3 pulldown assay. Neutravidin agarose beads (Thermo Fisher) matrix with wild-type HEG1 cytoplasmic tail (1274-1381) and ΔYF (1274-1379) were previously described (5, 26). HUVEC were collected in cold lysis buffer (50 mM Tris-HCl, pH 7.4, 100 mM NaCl, 5 mM MgCl2, 0.5% NP-40) plus protease inhibitor cocktail (Roche). A total of 20 μl of HEG1 matrix was added to 600 μg of clarified lysates and incubated at 4° C. overnight while rotating. All conditions contained either vehicle DMSO, 35 μM HKi2 or 35 μM 2-hydroxy-1-naphthoic acid. After three washes with cold lysis buffer, beads were mixed with sample buffer and proteins were separated by SDS-PAGE. Bound PARD3 was detected by using polyclonal Rabbit anti-PARD3 (Millipore, 07-330) antibody.

A further data set has as its system KLF4 and KLF2 mRNA. Nature of the data set: KLF4 and KLF2 mRNA expression in hCMEC/D3 cells by qPCR. The class given is cell-based, human. The following applies: hCMEC/D3, 25 μM, 4 hours. The protocol: Cell culture. hCMEC/D3 cells at passages 30-37 were grown to confluence on collagen-coated plates and cultured using in EGM-2 MV medium and supplemented with complements obtained from the manufacturer (Lonza) as previously reported (31). HUVEC (Lonza) at passages 4-7 were grown to confluence on gelatin-coated plates and maintained using complete EGM-2 media (Lonza). HKi2, 10 mM in DMSO, was maintained at room temperature for 30 min rotating before use. Cells were then treated with HKi2 at the concentrations and times indicated for each experiment. Vehicle cells were treated with the same volume of DMSO as used with HKi2. Cells were maintained at 37° C. in 95% air and 5% CO2. RNA extraction and qRT-PCR. HUVECs total RNA were isolated using MagMAXTM-96 for Microarrays Total RNA Isolation Kit, according to the manufacturer's protocol (Thermo Fisher Scientific Cat #AM1839). qPCR analysis, single-stranded cDNA was produced from 10 ng RNA isolated from HUVECs using PrimeScriptTM RT Master Mix according to the manufacturer's protocol (Takara Cat. #R[…]). The levels of genes were analyzed using iTaqTM Universal SYBR Green (BioRad Cat #1725122) and thermal cycler (CFX96 Real-Time System; Bio-Rad) according to the manufacturer's protocol. Actin mRNA levels was used as internal control, and the 2^-ΔΔCT method was used for data analysis.
A general note: In qPCR the cycle at which signal appears reflects the starting amount.

The next data set has as its system HUVEC. Briefly: Genome-wide RNA sequencing of HUVEC. The class given is cell-based, human. The following applies: same conditions (75 μM, 24 h). The protocol: Cell culture. hCMEC/D3 cells at passages 30-37 were grown to confluence on collagen-coated plates and cultured using in EGM-2 MV medium and supplemented with complements obtained from the manufacturer (Lonza) as previously reported (31). HUVEC (Lonza) at passages 4-7 were grown to confluence on gelatin-coated plates and maintained using complete EGM-2 media (Lonza). HKi2, 10 mM in DMSO, was maintained at room temperature for 30 min rotating before use. Cells were then treated with HKi2 at the concentrations and times indicated for each experiment. Vehicle cells were treated with the same volume of DMSO as used with HKi2. Cells were maintained at 37° C. in 95% air and 5% CO2. Genome-wide RNA sequencing. The quantity (ND-1000 spectrophotometer; NanoDrop Technologies) and quality (Bioanalyzer; Agilent) of total RNA were analyzed. Only RNA with a RNA integrity number (RIN) greater than 8 RNA was used for library preparation. Libraries were generated using Illumina's TruSeq Stranded mRNA Sample Prep kit using 400 ng RNA. RNA libraries were multiplexed and sequenced with 100-bp […] single-end reads (SR100) to a depth of 30 million reads per sample on an Illumina HiSeq2500. Fastq files from RNA-seq experiments were mapped to the human genome (GRCh primary assembly release 96) using Hisat2 with default parameters. All bioinformatics analyses were conducted in R using the […] package RNAseq workflows. Differential gene expression analysis was conducted with EdgeR.

A short description of a further data set: log P. The class given is physicochemical. Conditions: method not stated (FIG. 2A).
A short description of data set [1]: Aqueous solubility in assay buffer. It is filed as physicochemical. Conditions: assay buffer, aqueous buffer, in the buffer conditions of the assay.
Where [2] appears, read: Table 2, flow cytometry-screening assay, NI = no inhibition detected up to 500 μM, read-out: IC50.

Like-named read-outs stand apart in the source and are kept apart here. Peptide text beside a SMILES is read from it.

T1 sequence (O00522 417-736): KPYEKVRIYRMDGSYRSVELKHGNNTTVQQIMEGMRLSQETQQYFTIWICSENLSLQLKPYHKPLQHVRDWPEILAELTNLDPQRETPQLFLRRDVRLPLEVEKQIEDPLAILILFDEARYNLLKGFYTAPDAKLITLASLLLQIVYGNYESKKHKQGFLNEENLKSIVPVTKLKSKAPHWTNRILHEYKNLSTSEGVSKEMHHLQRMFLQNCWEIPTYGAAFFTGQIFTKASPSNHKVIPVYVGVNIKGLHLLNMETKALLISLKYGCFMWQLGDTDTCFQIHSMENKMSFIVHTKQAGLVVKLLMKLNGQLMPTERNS

A word on the IC50: it is the concentration needed to halve the response being measured. Consider `O=C(O)c1c(O)ccc2ccccc12` [Compound 9, 2-hydroxy-1-naphthoic acid], for which the IC50 on HEG1-KRIT1 interaction (setting [2]) is more than 500 µM. The “PARD3 binding to HEG1” value in the data set with PARD3 binding to HEG1 is “no effects”. Besides, the “KLF4 or KLF2 elevation” value in the data set on KLF4 and KLF2 mRNA was “did not elevate”. In addition, the “effects on gene expression by RNA-Seq” value with HUVEC is “no significant effects”.
Regarding `Oc1ccc2ccccc2c1` [Compound 10, naphthalene-2-ol], the half-maximal inhibitory concentration (IC50) on HEG1-KRIT1 interaction (setting [2]) is more than 500 µM. The “effects on gene expression by RNA-Seq” value in the data set on HUVEC is listed as “no significant effects”.
As to `O=Cc1ccccc1O` [Compound 16, Salicylaldehyde], the IC50 was more than 500 µM on HEG1-KRIT1 interaction (setting [2]) and “did not exhibit detectable activity” at HEG1-KRIT1 interaction (inhibition of the HEG1-KRIT1 interaction, flow cytometry assay).
As for `N=C(N)NCCC[C@H](NC(=O)[C@H](CCCNC(=N)N)NC(=O)[C@H](CCCNC(=N)N)NC(=O)[C@@H](N)CO)C(=O)N[C@@H](CC(=O)O)C(=O)N[C@@H](Cc1ccc(O)cc1)C(=O)N[C@@H](Cc1ccccc1)C(=O)O` [HEG1 C-terminus 7-mer peptide, reference compound] (H-SRRRDYF-OH; N-terminus and C-terminus assumed), the IC50 on HEG1-KRIT1 interaction (blocking of GFP-KRIT1 FERM domain binding to HEG1 matrix beads, read-out: IC50) was found to be 0.41 µM.
The logP is a log measure of how a compound divides between an organic and an aqueous phase. As a reminder, the solubility is the dissolved amount per volume that the medium holds. A lower solubility goes with a poorly soluble substance. With `CC(NC(=O)c1ccccc1N=Cc1c(O)ccc2ccccc12)c1ccccc1` (stereo not drawn) [Sirtinol (Hki1), 2-[[(2-hydroxy-1-naphthalenyl)methylene]amino]-N-(1-phenylethyl)-benzamide, reference compound], the half-maximal inhibitory concentration (IC50) at HEG1-KRIT1 interaction (inhibition of the HEG1-KRIT1 interaction, flow cytometry assay, read-out: IC50) is approximately 10 µM. The lipophilicity (logP) in the data set “log P” was 5.7. In data set [1], the solubility is less than 50 µM.
